14 molecules from ChEMBL document CHEMBL3112448, “Selective COX-1 inhibition as a target of theranostic novel diarylisoxazoles” (Eur J Med Chem, 2014) can be followed below.

Each structure is given as a SMILES string. The source made the active and inactive calls. No cut-off for these calls is given here.

For the first experiment, the target named is Prostaglandin G/H synthase 1 (Homo sapiens, UniProt P23219). The experiment is described as follows: Inhibition of COX1 in human OVCAR3 cells using [14C]arachidonic acid as substrate preincubated for 30 mins before substrate addition by radioactivity scanning technique. It is filed as cell-based, OVCAR-3.
Prostaglandin G/H synthase 1, sequence (P23219 whole entry): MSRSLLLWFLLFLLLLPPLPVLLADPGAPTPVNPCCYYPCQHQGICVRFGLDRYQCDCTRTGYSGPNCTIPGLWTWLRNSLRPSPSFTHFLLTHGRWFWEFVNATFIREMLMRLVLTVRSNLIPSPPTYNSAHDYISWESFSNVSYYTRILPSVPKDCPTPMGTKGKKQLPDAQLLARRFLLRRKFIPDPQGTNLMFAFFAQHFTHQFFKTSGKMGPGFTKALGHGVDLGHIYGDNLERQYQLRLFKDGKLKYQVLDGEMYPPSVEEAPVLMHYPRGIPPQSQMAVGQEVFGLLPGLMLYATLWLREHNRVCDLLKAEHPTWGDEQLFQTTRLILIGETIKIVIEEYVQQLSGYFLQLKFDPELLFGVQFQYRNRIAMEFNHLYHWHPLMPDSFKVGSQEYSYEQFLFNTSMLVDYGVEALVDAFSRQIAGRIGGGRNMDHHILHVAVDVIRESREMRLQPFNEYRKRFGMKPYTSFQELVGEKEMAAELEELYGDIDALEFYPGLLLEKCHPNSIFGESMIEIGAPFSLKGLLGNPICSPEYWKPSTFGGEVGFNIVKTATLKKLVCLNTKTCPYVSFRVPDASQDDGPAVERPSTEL
Conditions: not given
For orientation: IC50 means the point on the concentration scale where inhibition reaches its midpoint. On to `Nc1onc(-c2ccc(Cl)o2)c1-c1ccccc1`, for which the IC50 amounted to 580 nM.

Another experiment concerns the target T1, Prostaglandin G/H synthase 1 (Ovis aries) (UniProt P05979).
T1 sequence (whole entry): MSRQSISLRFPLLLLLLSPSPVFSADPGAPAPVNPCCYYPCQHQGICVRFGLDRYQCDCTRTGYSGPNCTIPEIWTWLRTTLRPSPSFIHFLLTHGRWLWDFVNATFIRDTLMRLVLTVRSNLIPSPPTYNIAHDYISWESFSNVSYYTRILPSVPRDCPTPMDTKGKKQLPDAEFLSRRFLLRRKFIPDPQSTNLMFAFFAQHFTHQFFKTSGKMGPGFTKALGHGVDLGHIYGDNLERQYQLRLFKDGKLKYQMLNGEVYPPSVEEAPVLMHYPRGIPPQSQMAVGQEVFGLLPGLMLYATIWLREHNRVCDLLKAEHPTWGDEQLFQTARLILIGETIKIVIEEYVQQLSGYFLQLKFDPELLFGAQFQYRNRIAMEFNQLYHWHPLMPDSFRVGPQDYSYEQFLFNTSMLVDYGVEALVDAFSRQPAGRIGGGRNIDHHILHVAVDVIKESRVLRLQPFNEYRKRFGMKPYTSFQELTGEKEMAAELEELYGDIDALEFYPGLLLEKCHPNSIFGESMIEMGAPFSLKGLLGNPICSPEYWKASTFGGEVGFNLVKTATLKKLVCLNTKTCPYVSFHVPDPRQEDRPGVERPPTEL
The conditions noted are these: at 50 µM.
Description: Inhibition of ovine COX1 at 50 uM by peroxidase activity-based colorimetric assay
By inhibition is commonly meant the drop in the measured response relative to a control, in per cent. For the molecule `COc1ccccc1-c1noc(C)c1-c1ccccc1`, the inhibition is 61%.

`Clc1ccc(-c2noc(CBr)c2-c2ccccc2)o1` gave an inhibition of 35%.

Regarding `CC(=O)N(C(C)=O)c1onc(-c2ccc(Cl)o2)c1-c1ccccc1`, the inhibition is 25%.

`N#CCc1onc(-c2ccc(Cl)o2)c1-c1ccccc1` registered an inhibition of 12%.

As for `Nc1onc(-c2ccc(Cl)o2)c1-c1ccccc1`, the inhibition turned out to be 94%.

As for `Cc1onc(-c2ccc(Cl)o2)c1-c1ccccc1`, the inhibition amounted to 69%.

As to `Cc1onc(-c2ccc(Cl)o2)c1-c1ccc(N)cc1`, the inhibition came out at 78%.

On to `COC(=O)Cc1onc(-c2ccc(Cl)o2)c1-c1ccccc1`, for which the inhibition entry was “inactive”.

`CN(C)c1onc(-c2ccc(Cl)o2)c1-c1ccccc1`: the inhibition result is “inactive”.

Molecule `COc1ccccc1-c1noc(C(F)(F)F)c1-c1ccccc1` gave an inhibition of 39%.

For `CCc1onc(-c2ccc(Cl)o2)c1-c1ccccc1`, the inhibition amounted to 55%.

As to `Cc1onc(-c2ccc(Cl)o2)c1-c1ccc([N+](=O)[O-])cc1`, the inhibition entry is “inactive”.

Consider `CCCc1onc(-c2ccc(Cl)o2)c1-c1ccccc1`, for which the inhibition stood at 17%.

In turn, `O=C(O)Cc1onc(-c2ccc(Cl)o2)c1-c1ccccc1` gave an inhibition of 32%.
